Assay results: ChEMBL document CHEMBL3400096, “6,7-Dihydrobenzo[f]benzo[4,5]imidazo[1,2-d][1,4]oxazepine derivatives as selective inhibitors of PI3Kα” (Bioorg Med Chem, 2015)

Tests used:
[1] = target: T1, Phosphatidylinositol 4,5-bisphosphate 3-kinase catalytic subunit delta isoform (Homo sapiens, UniProt O00329); assay: Inhibition of recombinant PI3Kdelta (unknown origin) using […] as substrate after 3 hrs incubation by competitive fluorescence polarization kinase activity assay
T1 sequence (O00329 whole entry): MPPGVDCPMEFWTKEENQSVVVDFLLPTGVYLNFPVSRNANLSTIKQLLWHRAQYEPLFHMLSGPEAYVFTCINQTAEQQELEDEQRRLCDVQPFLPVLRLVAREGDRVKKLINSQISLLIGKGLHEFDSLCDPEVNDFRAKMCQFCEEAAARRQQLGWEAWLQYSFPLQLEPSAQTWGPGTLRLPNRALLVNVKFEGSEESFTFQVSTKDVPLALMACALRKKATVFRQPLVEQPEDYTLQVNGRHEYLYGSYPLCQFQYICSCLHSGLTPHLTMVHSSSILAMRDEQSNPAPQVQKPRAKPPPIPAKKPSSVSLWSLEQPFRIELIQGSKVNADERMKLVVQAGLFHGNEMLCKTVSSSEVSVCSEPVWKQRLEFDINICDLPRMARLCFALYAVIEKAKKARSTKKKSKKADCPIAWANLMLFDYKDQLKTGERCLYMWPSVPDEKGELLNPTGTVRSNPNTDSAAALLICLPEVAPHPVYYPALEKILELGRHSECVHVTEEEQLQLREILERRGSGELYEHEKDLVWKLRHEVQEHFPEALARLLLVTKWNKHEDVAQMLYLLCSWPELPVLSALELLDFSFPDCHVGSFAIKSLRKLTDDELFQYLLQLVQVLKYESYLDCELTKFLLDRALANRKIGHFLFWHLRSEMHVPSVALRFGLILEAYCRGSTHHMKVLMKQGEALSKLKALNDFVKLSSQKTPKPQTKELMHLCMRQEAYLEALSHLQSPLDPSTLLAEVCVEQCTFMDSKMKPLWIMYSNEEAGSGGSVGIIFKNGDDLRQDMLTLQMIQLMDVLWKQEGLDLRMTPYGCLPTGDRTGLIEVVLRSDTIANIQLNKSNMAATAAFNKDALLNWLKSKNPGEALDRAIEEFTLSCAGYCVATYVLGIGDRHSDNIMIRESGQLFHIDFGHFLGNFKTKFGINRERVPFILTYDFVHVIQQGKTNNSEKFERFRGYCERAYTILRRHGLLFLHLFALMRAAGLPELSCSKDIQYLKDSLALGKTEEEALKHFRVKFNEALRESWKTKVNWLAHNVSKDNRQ

[2] = Antiproliferative activity against human HL60 cells assessed as inhibition of absorbance after 72 hrs by MTT assay; assay type: functional, cell-based; conditions: HL-60, 72 h
[3] = target: Phosphatidylinositol 4,5-bisphosphate 3-kinase catalytic subunit alpha isoform (Homo sapiens, UniProt P42336); assay: Inhibition of recombinant PI3Kalpha (unknown origin) using […] as substrate after 3 hrs incubation by competitive fluorescence polarization kinase activity assay
Phosphatidylinositol 4,5-bisphosphate 3-kinase catalytic subunit alpha isoform, sequence (P42336 whole entry, canonical isoform): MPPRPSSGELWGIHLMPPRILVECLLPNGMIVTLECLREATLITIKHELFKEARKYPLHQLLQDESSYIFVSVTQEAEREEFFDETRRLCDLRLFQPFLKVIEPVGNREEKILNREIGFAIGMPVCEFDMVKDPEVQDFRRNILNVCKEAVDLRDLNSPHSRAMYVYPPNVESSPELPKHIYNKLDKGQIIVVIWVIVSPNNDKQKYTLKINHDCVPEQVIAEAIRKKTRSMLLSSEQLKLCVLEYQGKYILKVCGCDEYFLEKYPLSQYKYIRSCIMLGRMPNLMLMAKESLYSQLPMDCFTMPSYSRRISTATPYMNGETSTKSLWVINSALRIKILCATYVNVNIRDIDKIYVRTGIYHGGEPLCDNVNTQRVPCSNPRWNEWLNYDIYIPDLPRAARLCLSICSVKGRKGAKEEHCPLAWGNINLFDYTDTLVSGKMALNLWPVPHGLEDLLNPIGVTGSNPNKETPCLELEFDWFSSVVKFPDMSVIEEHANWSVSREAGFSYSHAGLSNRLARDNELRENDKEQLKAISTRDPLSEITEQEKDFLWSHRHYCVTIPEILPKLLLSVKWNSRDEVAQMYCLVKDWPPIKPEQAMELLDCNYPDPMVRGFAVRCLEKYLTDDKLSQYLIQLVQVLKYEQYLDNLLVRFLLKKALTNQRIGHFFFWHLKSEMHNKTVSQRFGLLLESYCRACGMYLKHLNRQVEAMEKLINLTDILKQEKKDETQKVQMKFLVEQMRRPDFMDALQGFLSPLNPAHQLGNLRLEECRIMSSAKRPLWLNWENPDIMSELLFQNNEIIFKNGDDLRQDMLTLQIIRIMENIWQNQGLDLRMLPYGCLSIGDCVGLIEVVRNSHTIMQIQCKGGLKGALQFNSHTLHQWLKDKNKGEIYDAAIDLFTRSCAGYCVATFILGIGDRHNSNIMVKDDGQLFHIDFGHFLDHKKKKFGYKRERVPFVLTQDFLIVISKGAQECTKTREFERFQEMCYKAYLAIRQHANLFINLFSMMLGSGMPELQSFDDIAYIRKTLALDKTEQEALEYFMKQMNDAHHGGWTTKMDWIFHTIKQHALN

[4] = Antiproliferative activity against human HCT116 cells assessed as inhibition of absorbance after 72 hrs by MTT assay; assay type: functional, cell-based; conditions: HCT-116, 72 h
[5] = Antiproliferative activity against human HuH7 cells assessed as inhibition of absorbance after 72 hrs by MTT assay; assay type: functional, cell-based; conditions: Huh-7, 72 h
[6] = target: Phosphatidylinositol 4,5-bisphosphate 3-kinase catalytic subunit gamma isoform (Homo sapiens, UniProt P48736); assay: Inhibition of recombinant PI3Kgamma (unknown origin) using […] as substrate after 3 hrs incubation by competitive fluorescence polarization kinase activity assay
Phosphatidylinositol 4,5-bisphosphate 3-kinase catalytic subunit gamma isoform, sequence (P48736 whole entry, canonical isoform): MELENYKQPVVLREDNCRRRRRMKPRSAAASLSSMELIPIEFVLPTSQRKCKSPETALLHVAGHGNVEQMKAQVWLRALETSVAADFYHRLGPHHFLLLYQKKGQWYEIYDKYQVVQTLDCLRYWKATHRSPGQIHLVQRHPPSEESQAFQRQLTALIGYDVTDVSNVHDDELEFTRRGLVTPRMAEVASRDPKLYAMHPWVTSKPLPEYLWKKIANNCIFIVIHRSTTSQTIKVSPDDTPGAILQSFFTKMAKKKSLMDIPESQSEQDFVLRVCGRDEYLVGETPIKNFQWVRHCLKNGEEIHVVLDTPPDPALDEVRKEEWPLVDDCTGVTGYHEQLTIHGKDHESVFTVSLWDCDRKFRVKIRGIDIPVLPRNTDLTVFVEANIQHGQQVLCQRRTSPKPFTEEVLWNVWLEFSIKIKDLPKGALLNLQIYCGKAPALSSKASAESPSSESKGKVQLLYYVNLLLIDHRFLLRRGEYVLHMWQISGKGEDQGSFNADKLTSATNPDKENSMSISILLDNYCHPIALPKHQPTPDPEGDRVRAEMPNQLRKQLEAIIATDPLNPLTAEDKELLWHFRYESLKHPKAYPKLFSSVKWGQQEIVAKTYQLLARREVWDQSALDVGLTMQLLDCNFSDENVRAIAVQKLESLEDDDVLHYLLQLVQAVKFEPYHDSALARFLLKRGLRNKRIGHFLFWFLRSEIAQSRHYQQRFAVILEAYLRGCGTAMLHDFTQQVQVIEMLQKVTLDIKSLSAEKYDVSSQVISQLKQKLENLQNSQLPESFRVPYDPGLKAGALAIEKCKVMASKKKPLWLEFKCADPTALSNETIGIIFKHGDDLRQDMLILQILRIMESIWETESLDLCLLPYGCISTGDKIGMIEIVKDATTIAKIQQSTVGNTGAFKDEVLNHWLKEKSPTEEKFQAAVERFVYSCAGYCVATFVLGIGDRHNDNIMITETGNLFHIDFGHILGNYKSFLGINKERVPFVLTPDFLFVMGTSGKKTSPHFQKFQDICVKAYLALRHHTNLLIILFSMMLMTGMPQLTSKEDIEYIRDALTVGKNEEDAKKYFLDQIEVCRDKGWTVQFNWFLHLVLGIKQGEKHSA

[7] = test system: A549; assay: Antiproliferative activity against human A549 cells assessed as inhibition of absorbance after 72 hrs by MTT assay; assay type: functional, cell-based; conditions: A549, 72 h
[8] = target: Phosphatidylinositol 4,5-bisphosphate 3-kinase catalytic subunit beta isoform (Homo sapiens, UniProt P42338); assay: Inhibition of recombinant PI3Kbeta (unknown origin) […] after 3 hrs incubation by competitive fluorescence polarization kinase activity assay
Phosphatidylinositol 4,5-bisphosphate 3-kinase catalytic subunit beta isoform, sequence (P42338 whole entry, canonical isoform): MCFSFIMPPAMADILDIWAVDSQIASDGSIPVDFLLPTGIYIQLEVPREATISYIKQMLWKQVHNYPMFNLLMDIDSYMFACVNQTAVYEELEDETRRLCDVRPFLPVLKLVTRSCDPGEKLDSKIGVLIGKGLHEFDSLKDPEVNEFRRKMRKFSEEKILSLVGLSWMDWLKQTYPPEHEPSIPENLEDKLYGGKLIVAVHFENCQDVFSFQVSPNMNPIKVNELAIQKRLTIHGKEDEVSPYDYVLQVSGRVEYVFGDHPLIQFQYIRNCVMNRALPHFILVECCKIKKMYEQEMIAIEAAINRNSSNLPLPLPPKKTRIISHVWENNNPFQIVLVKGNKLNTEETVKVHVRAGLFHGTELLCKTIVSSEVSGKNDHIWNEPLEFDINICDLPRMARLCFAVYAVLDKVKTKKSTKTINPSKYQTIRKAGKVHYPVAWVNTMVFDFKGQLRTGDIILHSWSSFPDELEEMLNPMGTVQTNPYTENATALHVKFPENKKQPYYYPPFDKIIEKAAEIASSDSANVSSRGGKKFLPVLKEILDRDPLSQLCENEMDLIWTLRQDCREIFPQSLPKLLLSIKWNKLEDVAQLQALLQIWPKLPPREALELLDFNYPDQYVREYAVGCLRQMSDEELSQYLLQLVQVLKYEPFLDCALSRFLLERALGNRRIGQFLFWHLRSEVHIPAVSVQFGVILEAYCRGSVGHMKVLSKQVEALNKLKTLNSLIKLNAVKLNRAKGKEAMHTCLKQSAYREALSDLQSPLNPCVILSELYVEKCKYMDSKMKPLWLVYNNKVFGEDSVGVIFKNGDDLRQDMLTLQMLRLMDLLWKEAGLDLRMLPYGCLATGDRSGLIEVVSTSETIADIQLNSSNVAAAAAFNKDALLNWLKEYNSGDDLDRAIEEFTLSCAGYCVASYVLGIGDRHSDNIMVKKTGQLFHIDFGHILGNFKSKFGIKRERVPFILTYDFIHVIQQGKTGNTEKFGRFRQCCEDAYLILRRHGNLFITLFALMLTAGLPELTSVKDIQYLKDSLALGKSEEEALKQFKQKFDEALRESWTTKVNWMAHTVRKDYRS

[9] = test system: HCT-116; assay: Induction of apoptosis in human HCT116 cells assessed as late apoptotic cells at 2 uM after 24 hrs using annexin V/propidium iodide staining based flow cytometry (reference value: 0.710%); assay type: functional
[10] = test system: HCT-116; assay: Induction of apoptosis in human HCT116 cells assessed as late apoptotic cells at 0.5 uM after 24 hrs using annexin V/propidium iodide staining based flow cytometry (reference value: 0.710%); assay type: functional
[11] = test system: HCT-116; assay: Induction of apoptosis in human HCT116 cells after 24 hrs using annexin V/propidium iodide staining based flow cytometry; assay type: functional, cell-based
[12] = test system: HCT-116; assay: Induction of apoptosis in human HCT116 cells assessed as early apoptotic cells after 24 hrs using annexin V/propidium iodide staining based flow cytometry; assay type: functional, cell-based
[13] = test system: HCT-116; assay: Induction of apoptosis in human HCT116 cells assessed as late apoptotic cells at 1 uM after 24 hrs using annexin V/propidium iodide staining based flow cytometry (reference value: 0.710%); assay type: functional
[14] = test system: HCT-116; assay: Induction of apoptosis in human HCT116 cells assessed as necrotic cells at 1 uM after 24 hrs using annexin V/propidium iodide staining based flow cytometry (reference value: 4.09%); assay type: functional
[15] = test system: HCT-116; assay: Induction of apoptosis in human HCT116 cells assessed as viable cells at 0.5 uM after 24 hrs using annexin V/propidium iodide staining based flow cytometry (reference value: 93.3%); assay type: functional; conditions: HCT-116, 24 h, read-out: Activity
[16] = test system: HCT-116; assay: Induction of apoptosis in human HCT116 cells assessed as viable cells at 1 uM after 24 hrs using annexin V/propidium iodide staining based flow cytometry (reference value: 93.3%); assay type: functional; conditions: HCT-116, 24 h, read-out: Activity
[17] = test system: HCT-116; assay: Induction of apoptosis in human HCT116 cells assessed as viable cells at 2 uM after 24 hrs using annexin V/propidium iodide staining based flow cytometry (reference value: 93.3%); assay type: functional; conditions: HCT-116, 24 h, read-out: Activity
[18] = test system: HCT-116; assay: Induction of apoptosis in human HCT116 cells assessed as early apoptotic cells at 1 uM after 24 hrs using annexin V/propidium iodide staining based flow cytometry (reference value: 1.93%); assay type: functional
[19] = test system: HCT-116; assay: Induction of apoptosis in human HCT116 cells assessed as early apoptotic cells at 0.5 uM after 24 hrs using annexin V/propidium iodide staining based flow cytometry (reference value: 1.93%); assay type: functional
[20] = test system: HCT-116; assay: Induction of apoptosis in human HCT116 cells assessed as necrotic cells at 0.5 uM after 24 hrs using annexin V/propidium iodide staining based flow cytometry (reference value: 4.09%); assay type: functional
[21] = test system: HCT-116; assay: Induction of apoptosis in human HCT116 cells assessed as necrotic cells at 2 uM after 24 hrs using annexin V/propidium iodide staining based flow cytometry (reference value: 4.09%); assay type: functional
[22] = test system: HCT-116; assay: Induction of apoptosis in human HCT116 cells assessed as early apoptotic cells at 2 uM after 24 hrs using annexin V/propidium iodide staining based flow cytometry (reference value: 1.93%); assay type: functional

| SMILES | IC50 [1] [µM] | IC50 [3] [µM] | IC50 [6] [µM] | IC50 [7] [µM] | IC50 [8] [µM] | IC50 [2] [µM] | IC50 [4] [µM] | IC50 [5] [µM] | other results |
| --- | --- | --- | --- | --- | --- | --- | --- | --- | --- |
| O=[N+]([O-])c1ccc2c(c1)nc1n2CCOc2ccccc2-1 | – | – | – | 122 | – | 94.5 | 91 | 105 | – |
| Clc1ccc2c(c1)-c1nc3cc(Cl)ccc3n1CCO2 | > 50 | 0.127 | 24.3 | 0.56 | 0.363 | 0.53 | 0.52 | 0.45 | – |
| Clc1ccc2c(c1)nc1n2CCOc2ccc(Br)cc2-1 | > 50 | 0.031 | 11.8 | 0.17 | 0.188 | 0.15 | 0.12 | 0.18 | – |
| Clc1ccc2c(c1)nc1n2CCOc2ccccc2-1 | – | – | – | 77.3 | – | 73.8 | 71.5 | 80.3 | – |
| Fc1ccc2c(c1)nc1n2CCOc2ccc(Br)cc2-1 | > 50 | 0.181 | 27.9 | 0.7 | 0.473 | 0.78 | 0.74 | 0.74 | – |
| O=[N+]([O-])c1ccc2c(c1)nc1n2CCOc2ccc(Cl)cc2-1 | – | – | – | 28.3 | – | 32.9 | 28.4 | 20.1 | – |
| O=[N+]([O-])c1ccc2c(c1)nc1n2CCOc2ccc(Br)cc2-1 | – | – | – | 22 | – | 17.5 | 19 | 24.3 | – |
| Brc1ccc2c(c1)-c1nc3cc(Br)ccc3n1CCO2 | 39.8 | 0.092 | 19.5 | 0.48 | 0.284 | 0.47 | 0.47 | 0.51 | – |

More lines, main results first:

| IC50 [1] [µM] | IC50 [3] [µM] | IC50 [6] [µM] | IC50 [7] [µM] | IC50 [8] [µM] | SMILES | IC50 [2] [µM] | IC50 [4] [µM] | IC50 [5] [µM] | other results |
| --- | --- | --- | --- | --- | --- | --- | --- | --- | --- |
| > 50 | 0.685 | 41.6 | 4.95 | 1.21 | Cc1ccc2c(c1)-c1nc3cc(C(F)(F)F)ccc3n1CCO2 | 4.86 | 4.45 | 6.47 | – |
| 47.8 | 0.662 | 44.1 | 7.88 | 1.03 | Cc1ccc2c(c1)-c1nc3cc(Br)ccc3n1CCO2 | 7.68 | 7.38 | 4.91 | – |
| – | – | – | 11.5 | – | FC(F)(F)c1ccc2c(c1)nc1n2CCOc2ccccc2-1 | 10.1 | 13.8 | 18.7 | – |
| – | – | – | 61.6 | – | Cc1ccc2c(c1)nc1n2CCOc2ccc(Cl)cc2-1 | 57.4 | 58.2 | 63.4 | – |
| 34.6 | 0.016 | 9.44 | 0.11 | 0.184 | Cc1ccc2c(c1)-c1nc3cc([N+](=O)[O-])ccc3n1CCO2 | 0.1 | 0.08 | 0.12 | Activity [9]: 5.98%; Activity [10]: 4.91%; Activity [11]: Dose-dependent effect; Activity [12]: Dose-dependent effect; Activity [13]: 4.13%; Activity [14]: 1.26%; viability at 0.5 µM [15]: 79.5%; viability at 1 µM [16]: 76.8%; viability at 2 µM [17]: 65.7%; Activity [18]: 17.8%; Activity [19]: 15.1%; Activity [20]: 0.523%; Activity [21]: 0.974%; Activity [22]: 27.3% |
| > 50 | 0.474 | 34.6 | 2.85 | 0.907 | Cc1ccc2c(c1)-c1nc3cc(F)ccc3n1CCO2 | 4.56 | 2.46 | 3.86 | – |
| – | – | – | 92.8 | – | Cc1ccc2c(c1)nc1n2CCOc2ccc(Br)cc2-1 | 88.6 | 80.1 | 97.4 | – |
